# Measurements from publication PMC5559104, “Heat shock protein 90 localizes to the surface and augments virulence factors of Cryptococcus neoformans” (PLoS Neglected Tropical Diseases, 2017).
# Key:
# [1] = molecular target: T1, CnHsp90 (heat shock protein 90) (Cryptococcus neoformans, UniProt J9VVA4); test: intrinsic tryptophan fluorescence quenching; also inhibits ATPase activity of the purified protein (IC50 […] at […]°C, […] at […]°C); assay type: binding
# T1 construct: gene CNAG_06150; recombinant CnHsp90 6x-His tag fusion protein (2157 bp amplified product in pRSET-A)
# T1 sequence (J9VVA4 entry or part of it): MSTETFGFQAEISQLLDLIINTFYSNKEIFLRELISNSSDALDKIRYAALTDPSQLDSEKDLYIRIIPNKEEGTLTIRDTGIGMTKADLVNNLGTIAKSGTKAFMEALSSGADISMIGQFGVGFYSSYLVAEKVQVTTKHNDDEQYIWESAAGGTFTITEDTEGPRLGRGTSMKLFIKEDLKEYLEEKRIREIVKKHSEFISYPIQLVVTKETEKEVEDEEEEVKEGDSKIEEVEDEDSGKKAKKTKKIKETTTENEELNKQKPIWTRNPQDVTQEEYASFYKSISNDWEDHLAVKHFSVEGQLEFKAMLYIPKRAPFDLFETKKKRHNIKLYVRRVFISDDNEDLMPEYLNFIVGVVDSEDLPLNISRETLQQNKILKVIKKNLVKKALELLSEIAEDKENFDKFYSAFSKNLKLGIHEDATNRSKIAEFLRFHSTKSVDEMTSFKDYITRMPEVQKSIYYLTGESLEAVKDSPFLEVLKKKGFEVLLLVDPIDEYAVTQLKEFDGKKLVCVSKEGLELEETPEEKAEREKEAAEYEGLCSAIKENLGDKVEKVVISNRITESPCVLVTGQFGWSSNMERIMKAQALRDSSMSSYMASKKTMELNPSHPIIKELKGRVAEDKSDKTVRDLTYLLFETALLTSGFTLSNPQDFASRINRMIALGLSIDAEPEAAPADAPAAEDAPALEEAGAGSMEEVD
# [2] = molecular target: T1, CnHsp90 (heat shock protein 90); test: intrinsic tryptophan fluorescence quenching; also hydrolysis of γ-32P-ATP (Km […] at […]°C, […] at […]°C); assay type: binding
SMILES,Kd [1] [µM],Kd [2] [µM]
C=CCNC1=C2C[C@@H](C)C[C@H](OC)[C@H](O)[C@@H](C)/C=C(\C)[C@H](OC(N)=O)[C@@H](OC)/C=C\C=C(/C)C(=O)NC(=CC1=O)C2=O [17-AAG],12.9,–
Nc1ncnc2c1ncn2[C@@H]1O[C@H](COP(=O)(O)OP(=O)(O)OP(=O)(O)O)[C@@H](O)[C@H]1O [ATP],–,497
